These are literature values, as cited in patent US12414928B2, “Viral inactivation spray and gargling formulation” (priority 2021, dated 2025).

For data set [1], the system named is coronavirus disease 2019 (COVID-19).
The next data set relates to enveloped virus. The conditions noted are these: in vitro, pH 4.0.

Consider `Cl` [Hydrochloric Acid], for which the virus inactivation in data set [1] is given as 100%.

Consider `N=C(N)NCCC[C@H](N)C(=O)O` [L-Arginine], for which the enveloped virus inactivation with enveloped virus is 5 logs reduction.
